PubChem BioAssay (NCI)
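Interpolation was linear, between the two tested concentrations surrounding the appropriate level; five concentrations were tested over 48 hours in 96-well plates. GI50 is the concentration that inhibits growth by half. TGI is the concentration that stops growth completely.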

What was measured:
Assay in all cases: growth of human tumour cells (NCI), 48 h
SK-MEL-28 melanoma = test system: SK-MEL-28 melanoma
NCI-H522 lung = test system: NCI-H522 lung
UACC-257 melanoma = test system: UACC-257 melanoma
SK-MEL-5 melanoma = test system: SK-MEL-5 melanoma
SN12C renal = test system: SN12C renal
NCI-H226 lung = test system: NCI-H226 lung
OVCAR-8 ovarian = test system: OVCAR-8 ovarian
RXF 393 renal = test system: RXF 393 renal
MDA-MB-231 breast = test system: MDA-MB-231 breast
LOX IMVI melanoma = test system: LOX IMVI melanoma

**Q.** `c1cnc(N2CCN(Cc3c[nH]c4ccccc34)CC2)nc1` was tested. Which TGI (SK-MEL-28 melanoma) did it give?
**A.** > 100 µM

**Q.** And the TGI (NCI-H522 lung)?
**A.** > 100 µM

**Q.** What about the TGI (UACC-257 melanoma) of the same compound?
**A.** > 100 µM

**Q.** What about the TGI (SK-MEL-5 melanoma) of the same compound?
**A.** > 100 µM

**Q.** What about the TGI (SN12C renal) of the same compound?
**A.** > 100 µM

**Q.** And the TGI (NCI-H226 lung)?
**A.** > 100 µM

**Q.** And the TGI (OVCAR-8 ovarian)?
**A.** > 100 µM

**Q.** And the TGI (RXF 393 renal)?
**A.** > 100 µM

**Q.** And the TGI (MDA-MB-231 breast)?
**A.** > 100 µM

**Q.** And the TGI (LOX IMVI melanoma)?
**A.** > 100 µM

**Q.** With `COC(OC)[C@@H]1OC[C@@H](O)[C@@H]1n1cnc2c(N)ncnc21` as the compound, how does the TGI (SK-MEL-28 melanoma) read?
**A.** > 100 µM

**Q.** And the TGI (NCI-H522 lung)?
**A.** > 100 µM

**Q.** What about the TGI (UACC-257 melanoma) of the same compound?
**A.** > 100 µM

**Q.** What about the TGI (SK-MEL-5 melanoma) of the same compound?
**A.** > 100 µM

**Q.** What about the TGI (SN12C renal) of the same compound?
**A.** > 100 µM

**Q.** What about the TGI (NCI-H226 lung) of the same compound?
**A.** > 100 µM

**Q.** What about the TGI (RXF 393 renal) of the same compound?
**A.** > 100 µM

**Q.** What about the TGI (MDA-MB-231 breast) of the same compound?
**A.** > 100 µM

**Q.** What about the TGI (LOX IMVI melanoma) of the same compound?
**A.** > 100 µM

**Q.** For `Fc1cccc(F)c1C1SCc2nc3ccc(Cl)cc3n21` (stereo unspecified), which TGI (SK-MEL-28 melanoma) is on record?
**A.** > 100 µM

**Q.** And the TGI (NCI-H522 lung)?
**A.** > 100 µM

**Q.** What about the TGI (UACC-257 melanoma) of the same compound?
**A.** > 100 µM

**Q.** What about the TGI (SK-MEL-5 melanoma) of the same compound?
**A.** > 100 µM

**Q.** And the TGI (SN12C renal)?
**A.** > 100 µM

**Q.** And the TGI (OVCAR-8 ovarian)?
**A.** > 100 µM

**Q.** What about the TGI (RXF 393 renal) of the same compound?
**A.** > 100 µM

**Q.** What about the TGI (MDA-MB-231 breast) of the same compound?
**A.** > 100 µM

**Q.** What about the TGI (LOX IMVI melanoma) of the same compound?
**A.** > 100 µM

**Q.** Which TGI (SK-MEL-28 melanoma) does the source give for `O=C1C(CN2CCOCC2)CCCC1CN1CCOCC1` (stereo unspecified) here?
**A.** 3.83 µM

**Q.** What about the TGI (NCI-H522 lung) of the same compound?
**A.** 0.156 µM

**Q.** And the TGI (UACC-257 melanoma)?
**A.** 5.72 µM

**Q.** What about the TGI (SK-MEL-5 melanoma) of the same compound?
**A.** 23.9 µM

**Q.** What about the TGI (SN12C renal) of the same compound?
**A.** 7.71 µM

**Q.** What about the TGI (NCI-H226 lung) of the same compound?
**A.** 40.3 µM

**Q.** And the TGI (OVCAR-8 ovarian)?
**A.** 9.31 µM

**Q.** What about the TGI (RXF 393 renal) of the same compound?
**A.** 4.14 µM

**Q.** What about the TGI (MDA-MB-231 breast) of the same compound?
**A.** 19.8 µM

**Q.** What about the TGI (LOX IMVI melanoma) of the same compound?
**A.** 8.98 µM

**Q.** Which results are given for `CC1(C)CC(=O)C2=C(C1)OC1=C(CC(C)(C)CC1=O)C2c1ccccc1[N+](=O)[O-]` (stereo unspecified)?
**A.** TGI (SK-MEL-28 melanoma): > 100 µM; TGI (NCI-H522 lung): > 100 µM; TGI (SK-MEL-5 melanoma): > 100 µM; TGI (SN12C renal): > 100 µM; TGI (NCI-H226 lung): > 100 µM; TGI (RXF 393 renal): > 100 µM; TGI (MDA-MB-231 breast): > 100 µM; TGI (LOX IMVI melanoma): > 100 µM

**Q.** Which TGI (SK-MEL-28 melanoma) does the source give for `O=C(CCc1ccccc1)On1c(-c2ccccc2)nc2ccccc2c1=S` here?
**A.** > 100 µM

**Q.** What about the TGI (UACC-257 melanoma) of the same compound?
**A.** > 100 µM

**Q.** What about the TGI (SK-MEL-5 melanoma) of the same compound?
**A.** 47.2 µM

**Q.** And the TGI (SN12C renal)?
**A.** > 100 µM

**Q.** What about the TGI (NCI-H226 lung) of the same compound?
**A.** 29.9 µM

**Q.** And the TGI (OVCAR-8 ovarian)?
**A.** 64.6 µM

**Q.** What about the TGI (RXF 393 renal) of the same compound?
**A.** 57.3 µM

**Q.** And the TGI (MDA-MB-231 breast)?
**A.** > 100 µM

**Q.** And the TGI (LOX IMVI melanoma)?
**A.** 83.6 µM

**Q.** Which results are given for `Clc1ccc(OCc2nn3c(CCc4nnc5sc(COc6ccc(Cl)cc6)nn45)nnc3s2)cc1`?
**A.** TGI (SK-MEL-28 melanoma): > 100 µM; TGI (NCI-H522 lung): 30.1 µM; TGI (UACC-257 melanoma): 82.9 µM; TGI (SK-MEL-5 melanoma): 23.7 µM; TGI (NCI-H226 lung): > 100 µM; TGI (OVCAR-8 ovarian): 35.8 µM; TGI (RXF 393 renal): 61.2 µM; TGI (MDA-MB-231 breast): 61.8 µM; TGI (LOX IMVI melanoma): > 100 µM

**Q.** Which results are given for `Oc1[nH]c2ccccc2c1/C=c1/cc2c(c(-c3ccc(F)cc3)n1)=Nc1ccccc1-2`?
**A.** GI50 (SK-MEL-28 melanoma): 0.777 µM; TGI (SK-MEL-28 melanoma): 2.47 µM; GI50 (NCI-H522 lung): 0.218 µM; TGI (NCI-H522 lung): 0.99 µM; GI50 (UACC-257 melanoma): 0.714 µM; TGI (UACC-257 melanoma): 2.88 µM; GI50 (SK-MEL-5 melanoma): 1.41 µM; TGI (SK-MEL-5 melanoma): 3.06 µM; GI50 (SN12C renal): 1.38 µM; TGI (SN12C renal): 3.88 µM; GI50 (NCI-H226 lung): 1.52 µM; TGI (NCI-H226 lung): 10.7 µM; GI50 (RXF 393 renal): 0.634 µM; TGI (RXF 393 renal): 1.96 µM; GI50 (MDA-MB-231 breast): 0.609 µM; TGI (MDA-MB-231 breast): 2.39 µM

**Q.** `COc1cc(-c2ccccc2N)c2cccnc2c1OC` was tested. Which TGI (SK-MEL-28 melanoma) did it give?
**A.** 32.8 µM

**Q.** What about the TGI (NCI-H522 lung) of the same compound?
**A.** 17.9 µM

**Q.** What about the TGI (UACC-257 melanoma) of the same compound?
**A.** 24.8 µM

**Q.** What about the TGI (SK-MEL-5 melanoma) of the same compound?
**A.** 26.3 µM

**Q.** And the TGI (SN12C renal)?
**A.** 17.3 µM

**Q.** And the TGI (NCI-H226 lung)?
**A.** 26.6 µM

**Q.** What about the TGI (RXF 393 renal) of the same compound?
**A.** 34.6 µM

**Q.** What about the TGI (MDA-MB-231 breast) of the same compound?
**A.** 20.6 µM

**Q.** And the TGI (LOX IMVI melanoma)?
**A.** 15.3 µM

**Q.** How did the TGI (NCI-H522 lung) turn out when `CCOC(=O)C1=C(C)N(c2ccc(OC)cc2)C2(O)C=CC(=O)C3=C(O)c4ccccc4C(=O)C312` (stereo unspecified) was run?
**A.** 11.9 µM

**Q.** What about the TGI (UACC-257 melanoma) of the same compound?
**A.** 31.2 µM

**Q.** What about the TGI (SK-MEL-5 melanoma) of the same compound?
**A.** 24.6 µM

**Q.** And the TGI (SN12C renal)?
**A.** 30.2 µM

**Q.** And the TGI (OVCAR-8 ovarian)?
**A.** 81.1 µM

**Q.** And the TGI (MDA-MB-231 breast)?
**A.** 34.8 µM

**Q.** And the TGI (LOX IMVI melanoma)?
**A.** 22.4 µM

**Q.** Which TGI (SK-MEL-28 melanoma) does the source give for `C[Si](C)(c1ccccc1)[C@H]1CCCC=C1CCNC1c2ccccc2CCc2ccccc21` here?
**A.** > 100 µM

**Q.** And the TGI (NCI-H522 lung)?
**A.** > 100 µM

**Q.** What about the TGI (UACC-257 melanoma) of the same compound?
**A.** > 100 µM

**Q.** And the TGI (SK-MEL-5 melanoma)?
**A.** > 100 µM

**Q.** What about the TGI (SN12C renal) of the same compound?
**A.** > 100 µM

**Q.** And the TGI (NCI-H226 lung)?
**A.** > 100 µM

**Q.** And the TGI (OVCAR-8 ovarian)?
**A.** > 100 µM

**Q.** What about the TGI (RXF 393 renal) of the same compound?
**A.** > 100 µM

**Q.** And the TGI (MDA-MB-231 breast)?
**A.** > 100 µM

**Q.** And the TGI (LOX IMVI melanoma)?
**A.** > 100 µM
